This is an account of results in ChEMBL document CHEMBL1128859, “Cmi-206: A potent dual platelet activating factor antagonist and 5-lipoxygenase inhibitor” (Bioorg Med Chem Lett, 1995).

Experiment [1] addresses Platelet-activating factor receptor (Homo sapiens, UniProt P25105). The experiment is described as follows: In vitro affinity for human PAF receptor on platelet membranes using [3H]PAF displacement.
The target in experiment [2] is T1, Polyunsaturated fatty acid 5-lipoxygenase (Rattus norvegicus, UniProt P12527).
T1 sequence (P12527 whole entry): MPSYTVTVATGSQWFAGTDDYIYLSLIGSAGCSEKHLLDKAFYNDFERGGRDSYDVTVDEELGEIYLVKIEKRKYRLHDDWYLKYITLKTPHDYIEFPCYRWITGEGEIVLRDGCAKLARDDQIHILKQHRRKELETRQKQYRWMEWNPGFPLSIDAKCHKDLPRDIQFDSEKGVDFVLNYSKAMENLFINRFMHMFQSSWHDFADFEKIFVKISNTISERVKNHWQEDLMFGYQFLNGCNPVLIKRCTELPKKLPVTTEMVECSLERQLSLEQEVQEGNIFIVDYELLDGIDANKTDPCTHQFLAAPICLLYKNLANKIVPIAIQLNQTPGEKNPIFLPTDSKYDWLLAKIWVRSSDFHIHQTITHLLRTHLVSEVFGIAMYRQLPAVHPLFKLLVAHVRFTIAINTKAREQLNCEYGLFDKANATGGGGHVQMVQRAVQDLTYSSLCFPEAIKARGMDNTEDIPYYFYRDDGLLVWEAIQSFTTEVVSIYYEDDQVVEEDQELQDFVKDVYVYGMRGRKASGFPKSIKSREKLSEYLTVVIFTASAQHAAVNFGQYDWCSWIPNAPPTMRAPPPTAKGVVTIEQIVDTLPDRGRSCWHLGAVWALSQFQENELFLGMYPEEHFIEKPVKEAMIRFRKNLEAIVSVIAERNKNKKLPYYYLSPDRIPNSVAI
In words: In vitro inhibition of 5-lipoxygenase in RBL-2H3 (Rat basophilic leukemia) cells. It is filed as functional, cell-based.

For the next experiment, the system named is Rattus norvegicus. In words: Concentration of LTB4 was determined by enzyme immunoassay (Ex vivo) rat whole blood after intravenous administration of 5 mg/Kg. It is filed as functional.
Experiment [3] is filed under the species Homo sapiens. The experiment is described as follows: Inhibition of human whole blood (HWB) LTB4 production in A-23,187-activated human whole blood by the enzyme immunoassay. It counts as functional.
For experiment [4], the species on record is Homo sapiens. The experiment is described as follows: Inhibition of human whole blood (HWB) LTB4 production in A-23,187-activated human whole blood by the enzyme immunoassay at a dose of 3 uM. It is filed as functional.
Experiment [5] has as its system Mus musculus. The experiment is described as follows: Arachidonic acid (AA)-induced ear edema in mice was determined by topically applying AA to ears of mice. It counts as functional.
Experiment [6] has as its system Mus musculus. The experiment is described as follows: Ability to antagonize PAF-induced hemoconcentration PAF HTc in mice at a dose of 3 mg/kg. It is filed as functional.

Chain of Platelet-activating factor receptor (P25105 whole entry): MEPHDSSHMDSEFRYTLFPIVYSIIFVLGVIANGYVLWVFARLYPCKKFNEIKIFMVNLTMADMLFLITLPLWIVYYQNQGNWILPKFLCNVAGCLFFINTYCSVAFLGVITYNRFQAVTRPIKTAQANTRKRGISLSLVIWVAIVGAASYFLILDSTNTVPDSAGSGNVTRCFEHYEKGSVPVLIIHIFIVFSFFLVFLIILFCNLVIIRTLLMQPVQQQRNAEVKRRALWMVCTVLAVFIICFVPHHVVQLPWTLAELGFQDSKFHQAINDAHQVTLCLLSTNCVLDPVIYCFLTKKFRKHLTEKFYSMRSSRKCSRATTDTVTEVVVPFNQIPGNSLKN

On to `CCCOc1cc([C@H]2CC[C@H](c3cc(OC)c(OC)c(OC)c3)O2)cc(N(CC)C(=O)N(O)CCC)c1OCCC`, for which the IC50 in experiment [1] came to 56 nM. In the case of `CCCNC(=O)N(O)c1cc([C@H]2CC[C@H](c3cc(OC)c(OC)c(OC)c3)O2)cc(OCCC)c1OCCC`, the figures for the IC50 in experiment [2] and in experiment [1] were 3000 nM and 91 nM, respectively. Turning to `CCCOc1cc([C@H]2CC[C@H](c3cc(OC)c(OC)c(OC)c3)O2)cc(N(O)C(=O)NCC)c1OCCC`, the half-maximal inhibitory concentration (IC50) in experiment [1] came out at 59 nM.

For `CCCOc1cc([C@H]2CC[C@H](c3cc(OC)c(OC)c(OC)c3)O2)cc(N(CC)C(=O)N(O)CC)c1OCCC`, the values for the IC50 in experiment [2] and in experiment [1] were 1340 nM and 17 nM, respectively. `CCCOc1cc([C@H]2CC[C@H](c3cc(OC)c(OC)c(OC)c3)O2)cc(N(CC)C(=O)N(C)O)c1OCCC`: the IC50 in experiment [2] was 3070 nM; in experiment [1], 68 nM. Molecule `CCCOc1c(NC(=O)N(O)C(C)(C)C)cc(C2CCC(c3cc(OC)c(OC)c(OC)c3)O2)cc1OC` (cis isomer) gave an IC50 in experiment [1] of 456 nM. As for `CCCOc1c(NC(=O)N(O)C2CCCCC2)cc(C2CCC(c3cc(OC)c(OC)c(OC)c3)O2)cc1OC` (cis isomer), the figures for the IC50 in experiment [2] and in experiment [1] were 2540 nM and 1000 nM, respectively. For the molecule `CCCOc1c(NC(=O)N(O)Cc2ccccc2)cc(C2CCC(c3cc(OC)c(OC)c(OC)c3)O2)cc1OC` (cis isomer), the results for the IC50 in experiment [2] and in experiment [1] were 8000 nM and 585 nM, respectively. As for `CCCOc1c(NC(=O)N(O)C(C)CC)cc(C2CCC(c3cc(OC)c(OC)c(OC)c3)O2)cc1OC` (cis isomer), the IC50 is 450 nM in experiment [2] and 1610 nM in experiment [1]. For the molecule `CCCOc1c(NC(=O)N(C)O)cc(C2CCC(c3cc(OC)c(OC)c(OC)c3)O2)cc1OC` (cis isomer), in experiment [1], the IC50 worked out at 514 nM.

With `CCCCN(O)C(=O)Nc1cc(C2CCC(c3cc(OC)c(OC)c(OC)c3)O2)cc(OC)c1OCCC` (cis isomer), the half-inhibitory concentration (IC50) in experiment [2] worked out at 500 nM; in experiment [1], 1310 nM. Regarding `CCCOc1c(NC(=O)N(O)C(C)C)cc(C2CCC(c3cc(OC)c(OC)c(OC)c3)O2)cc1OC` (stereo in doubt), the IC50 in experiment [2] was 2830 nM; in experiment [1] it was 858 nM. Turning to `CCCOc1c(NC(=O)N(O)CCC)cc(C2CCC(c3cc(OC)c(OC)c(OC)c3)O2)cc1OC` (stereo in doubt), in experiment [2], the IC50 stood at 10000 nM. `CCCOc1c(NC(=O)NO)cc(C2CCC(c3cc(OC)c(OC)c(OC)c3)O2)cc1OC` (stereo in doubt) gave an IC50 in experiment [1] of 300 nM. `CCCCN(O)C(=O)Nc1cc(C2CCC(c3cc(OC)c(OC)c(OC)c3)O2)cc(OC)c1OCCC` (stereo in doubt): the IC50 in experiment [2] amounted to 420 nM; in experiment [1] it was 33 nM; in the experiment listed under Homo sapiens [3], 1680 nM. Moreover, the inhibition in vivo at 5 mg/kg in the experiment with Rattus norvegicus stood at 67%. The same molecule came in with an inhibition at 3 µM in the experiment listed under Homo sapiens [4] of 64%. Further, in the experiment on Mus musculus [5], the Inhibition is on record as 60%. Further, testing at 3 mg/kg in the experiment with Mus musculus [6] gave an inhibition in vivo of 31%.

With `CCCOc1c(NC(=O)N(O)CC)cc(C2CCC(c3cc(OC)c(OC)c(OC)c3)O2)cc1OC` (stereo in doubt), the IC50 was 3000 nM in experiment [2] and 383 nM in experiment [1]. For `CCCOc1c(NC(=O)N(O)C(C)(C)C)cc(C2CCC(c3cc(OC)c(OC)c(OC)c3)O2)cc1OC` (trans isomer), the IC50 in experiment [2] was found to be 2900 nM; in experiment [1] it was 26 nM. As for `CCCOc1c(NC(=O)N(O)C(C)C)cc(C2CCC(c3cc(OC)c(OC)c(OC)c3)O2)cc1OC` (trans isomer), the IC50 in experiment [2] amounted to 3000 nM; in experiment [1], 58 nM. The molecule `CCCOc1c(NC(=O)N(O)C2CCCCC2)cc(C2CCC(c3cc(OC)c(OC)c(OC)c3)O2)cc1OC` (trans isomer) came in with an IC50 in experiment [1] of 278 nM. For `CCCOc1c(NC(=O)N(O)Cc2ccccc2)cc(C2CCC(c3cc(OC)c(OC)c(OC)c3)O2)cc1OC` (trans isomer), the IC50 worked out at 2240 nM in experiment [2] and 423 nM in experiment [1]. With `CCCOc1c(NC(=O)N(O)CCC)cc(C2CCC(c3cc(OC)c(OC)c(OC)c3)O2)cc1OC` (trans isomer), in experiment [2] (rbl-2h3), the IC50 was found to be 10000 nM. In experiment [1], `CCCOc1c(NC(=O)NO)cc(C2CCC(c3cc(OC)c(OC)c(OC)c3)O2)cc1OC` (trans isomer) showed an IC50 of 30 nM. In the case of `CCCOc1c(NC(=O)N(O)C(C)CC)cc(C2CCC(c3cc(OC)c(OC)c(OC)c3)O2)cc1OC` (trans isomer), the IC50 in experiment [2] turned out to be 600 nM; in experiment [1], 25 nM. In the experiment listed under Homo sapiens [4], this molecule showed an inhibition at 3 µM of 57%.

Take `CCCOc1c(NC(=O)N(C)O)cc(C2CCC(c3cc(OC)c(OC)c(OC)c3)O2)cc1OC` (trans isomer): the IC50 was found to be 630 nM in experiment [2] and 17 nM in experiment [1]. Turning to `CCCOc1c(NC(=O)N(O)CC)cc(C2CCC(c3cc(OC)c(OC)c(OC)c3)O2)cc1OC` (trans isomer), the figures for the IC50 in experiment [2] and in experiment [1] were 150 nM and 8 nM, respectively. The molecule further showed an inhibition at 3 µM in the experiment filed under Homo sapiens [4] of 23%. In the experiment with Mus musculus [6], this molecule displayed an inhibition in vivo at 3 mg/kg of 58%. For the molecule `CC(c1cc2ccccc2s1)N(O)C(N)=O` (stereo not given) [ZILEUTON], 3 µM produced 75% inhibition in the experiment listed under Homo sapiens [4].

As usually defined, the IC50 is the midpoint of a concentration-inhibition curve. High values mean weaker potency in that assay, low ones greater potency in that assay. As a reminder, the inhibition in vivo is how much of the control response was suppressed. Read a low inhibition in vivo as a response near the control. Broadly, the inhibition is the percentage by which the read-out fell short of the control. Higher therefore signals a response far below the control. One may read the Inhibition as the relative decrease from the control value, in per cent. Read a high Inhibition as a response far below the control.
